What was measured:
[1] = Inhibition of Escherichia coli GAR transformylase
[2] = biological target: T1, Trifunctional purine biosynthetic protein adenosine-3 (Homo sapiens, UniProt P22102); test: Inhibition of human recombinant GAR transformylase
T1 sequence (P22102 whole entry): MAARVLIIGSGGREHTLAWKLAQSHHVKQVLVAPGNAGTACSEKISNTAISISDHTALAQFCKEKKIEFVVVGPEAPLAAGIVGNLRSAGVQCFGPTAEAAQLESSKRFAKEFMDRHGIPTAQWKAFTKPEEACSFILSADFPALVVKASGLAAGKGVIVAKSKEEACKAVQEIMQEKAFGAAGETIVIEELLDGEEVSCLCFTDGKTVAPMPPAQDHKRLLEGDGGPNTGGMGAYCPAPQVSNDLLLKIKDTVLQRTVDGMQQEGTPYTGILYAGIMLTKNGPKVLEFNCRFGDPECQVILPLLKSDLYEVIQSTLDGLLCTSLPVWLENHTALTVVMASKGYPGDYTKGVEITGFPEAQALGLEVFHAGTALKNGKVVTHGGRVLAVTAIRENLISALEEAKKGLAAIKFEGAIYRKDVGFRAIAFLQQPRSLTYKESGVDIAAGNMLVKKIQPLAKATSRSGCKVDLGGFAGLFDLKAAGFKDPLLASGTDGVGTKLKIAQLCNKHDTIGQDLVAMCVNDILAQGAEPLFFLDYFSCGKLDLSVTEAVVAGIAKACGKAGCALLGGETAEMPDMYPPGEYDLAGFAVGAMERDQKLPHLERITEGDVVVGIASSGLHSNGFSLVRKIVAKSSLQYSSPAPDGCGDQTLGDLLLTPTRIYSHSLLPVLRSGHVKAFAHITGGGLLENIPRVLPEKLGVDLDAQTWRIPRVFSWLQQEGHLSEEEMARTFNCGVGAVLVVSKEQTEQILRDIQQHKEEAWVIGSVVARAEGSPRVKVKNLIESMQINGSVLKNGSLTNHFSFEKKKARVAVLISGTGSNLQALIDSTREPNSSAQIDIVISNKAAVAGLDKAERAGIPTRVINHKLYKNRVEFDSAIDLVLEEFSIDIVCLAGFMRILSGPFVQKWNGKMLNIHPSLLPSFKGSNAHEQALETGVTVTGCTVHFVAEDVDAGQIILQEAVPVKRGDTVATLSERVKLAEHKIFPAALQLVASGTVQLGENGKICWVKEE

[3] = biological target: Bifunctional purine biosynthesis protein ATIC (Homo sapiens, UniProt P31939); test: Inhibition of IMPCH activity of human wild-type ATIC
Bifunctional purine biosynthesis protein ATIC, sequence (P31939 whole entry): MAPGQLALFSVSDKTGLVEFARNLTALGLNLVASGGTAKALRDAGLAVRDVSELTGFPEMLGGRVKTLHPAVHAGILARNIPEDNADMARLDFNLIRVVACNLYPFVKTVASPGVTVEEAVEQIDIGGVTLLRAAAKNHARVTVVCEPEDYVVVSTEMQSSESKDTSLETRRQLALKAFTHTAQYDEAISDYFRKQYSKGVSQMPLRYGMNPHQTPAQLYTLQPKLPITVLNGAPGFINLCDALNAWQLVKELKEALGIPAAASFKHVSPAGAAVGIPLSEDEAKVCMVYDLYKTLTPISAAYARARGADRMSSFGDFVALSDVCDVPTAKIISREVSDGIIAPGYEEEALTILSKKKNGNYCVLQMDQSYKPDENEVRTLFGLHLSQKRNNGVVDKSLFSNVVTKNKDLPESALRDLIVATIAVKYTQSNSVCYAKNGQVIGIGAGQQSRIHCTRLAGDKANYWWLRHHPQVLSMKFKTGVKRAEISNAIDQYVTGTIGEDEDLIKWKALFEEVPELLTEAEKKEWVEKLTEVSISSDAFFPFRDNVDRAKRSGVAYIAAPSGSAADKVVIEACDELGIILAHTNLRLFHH

Ki [2]	Compound	Ki [1]	Ki [3]
4.8 µM	O=C1NS(=O)(=O)Nc2c1ncn2[C@@H]1O[C@H](COP(=O)(O)O)[C@@H](O)[C@H]1O	> 100 µM	–
–	NC(=O)c1ncn([C@@H]2O[C@H](COP(=O)(O)O)[C@@H](O)[C@H]2O)c1NC=O [FAICAR]	–	400 nM
> 100 µM	O=C1NS(=O)(=O)Nc2c1ncn2[C@@H]1O[C@H](CO)[C@@H](O)[C@H]1O	> 100 µM	–
–	Nc1nc2c(c(=O)[nH]1)C[C@@H](CCc1ccc(C(=O)N[C@@H](CCC(=O)O)C(=O)O)cc1)CN2 [LOMETREXOL]	0.1 µM	–

Compound	Ki [2]	Ki [1]	Ki [3]
O=C1NS(=O)(=O)Nc2nc[nH]c21	> 100 µM	> 100 µM	–

Source: ChEMBL document CHEMBL1156444, “Structure-based design, synthesis, evaluation, and crystal structures of transition state analogue inhibitors of inosine monophosphate cyclohydrolase” (J Biol Chem, 2007)
